Measurements reported in US20250161308A1, “Methods of Treating Covid-Related Disorders” (priority 2022, published 2025).
Where two headings read alike, the source gives them in different places.

How the values were obtained:
[1] = test system: patient in need of treatment for long COVID; test: Treating long COVID (Example 1), clinical screening assessments; format: in vivo, human; settings: patients with long COVID
Protocol: A Compound of Formula (I), such as Compound 2a or Compound 1a, or a pharmaceutically acceptable salt thereof, is administered orally to a patient in need of treatment for long COVID.
In some embodiments, a patient in need of treatment for long COVID is assessed with ADCS-ADL23. The ADCS-ADL23 (Galasko, 1997) is a 23-item assessment of functional impairment in terms of activities of daily living administered to the support person/caregiver. It comprises 23 questions about the subject's involvement and level of performance across items representing daily living. The questions range from basic to instrumental activities of daily living. Each item is rated from the highest level of independent performance to complete loss. The total score range is from 0 to 78, with lower scores indicating greater functional impairment.
A patient in need of treatment for long COVID is assessed with ERP P300. ERP P300 is a quantitative, unbiased, non-invasive method of recording task-related brain processing speed, elicited by external stimuli, e.g., an oddball auditory stimulus, and is a well-established functional biomarker, particularly of working memory access (Ally, 2006). ERP P300 is characterized by a stereotyped series of voltage deflections occurring after the respective odd tone to be counted, with early features (<100 msec) corresponding to unconscious sensory transmission (auditory cortex, N100), and later features produced by cognitive processing in the ventral attentional network, i.e., P300, referring to the large positive deflection at roughly 300 msec in healthy adults (young or elderly). The P300 latency is sensitive to detecting reduced synaptic transmission related to cognitive decline in AD patients and other dementias (Olichney, 2011).

[2] = test system: Rat primary cortical neuron cultures; format: cell-based; settings: for Significance of neuroprotection vs 1 uM LPS: 24 h LPS
Rat hippocampal neurons [3] = test: Neurite outgrowth assay; format: cell-based; settings: for Significant increase in: Neurite length: Table 4 study
Rat hippocampal neurons [4] = test: Synaptogenesis assay; format: cell-based; settings: for Significant increase in: Synapses: Table 4 study
[5] = test system: LPS-induced cognitive deficit in CD-1 mice; test: Rodent LPS model of brain inflammation, T-maze spontaneous alternation; format: in vivo, mouse; settings: for Recovery (%) / Spontaneous alternation (%) Mean: LPS 250 μg/kg
[6] = test system: THP1-differentiated macrophages; format: cell-based, human; set-up: key to Significant reduction in IL-6 / Significant reduction in TNF-α / Significant reduction in IL-1β: NS: indicates a non-significant reduction in the indicated cytokine; +: indicates a p value<0.05 in Tukey post test; ++: indicates a p value<0.01 in Tukey post test; settings: for Significant reduction in IL-1β / Significant reduction in IL-6 / Significant reduction in TNF-α: 24 hrs LPS
[7] = test system: bleomycin-induced pulmonary fibrosis in C57BL/6 mice; test: Bleomycin-induced pulmonary fibrosis; format: in vivo, mouse; settings: for TGF-Beta, improvement versus disease control / Collagen, improvement versus disease control / Hydroxyproline, improvement versus disease control: right lung homogenate
[8] = test system: pulmonary LPS-stimulated rats; test: Immune cell infiltration in BALF, LPS acute pulmonary inflammation; format: in vivo, rat
[9] = test system: pulmonary LPS-stimulated rats; test: Cytokine expression in BALF supernatant (multiplex immunoassay), LPS acute pulmonary inflammation; format: in vivo, rat; settings: any dose, p<0.05 vs LPS-only animals
[10] = test system: chemically-induced spatial memory deficits in rats; test: Scopolamine-induced spatial memory deficit, Morris water maze (2 mg/kg scopolamine, 5 days); format: in vivo, rat
Protocol: Exemplary compound 1a was evaluated for its ability to reverse chemically-induced spatial memory deficits in rats in the Morris water maze. The water maze consists of a large round tank (diameter 1.5 m) filled with 23-26° C. water to a depth of ˜30 cm and the water was clouded with white paint. A round platform was fixed such that it rested 2-3 cm below the surface of the water. High-contrast visual cues were placed around the tank to aid spatial orientation of test animals. Testing consisted of placing an animal into the water facing the tank wall at one of three randomly assigned starting locations and allowing the animal to swim and search for the hidden platform for up to 90 seconds. The time taken for the animal to locate the platform was recorded as the escape latency. Animals were tested 5 times per day with a 30 second rest period between trials. Testing was completed for a total of 5 consecutive days.
Animals were divided into groups (N=12 per group) depending on treatment. Control animals received only empty vehicle. Scopolamine groups received 2 mg/kg scopolamine dissolved in sterile saline by intraperitoneal (IP) injection 30 minutes prior to testing. Test compound groups received test compound at various concentrations by oral gavage (PO) dissolved in 78% sterile saline, 20% polyethylene glycol (PEG-400), and 2% DMSO 40 minutes prior to testing. Escape latencies were recorded for each animal for 5 trials each day for 5 consecutive days. Changes in escape latency curves were statistically analyzed by 2-way ANOVA with Bonferoni post-test.

CCC(C)CN1CC2N(C(=O)c3ccc(C(F)(F)F)cc3)CCC(=O)N2[C@@H](C)C1=O (stereo partly drawn) [Compound 1a]
patient outcome as measured by one or more of the screening assessments [1]: reduces the rate of decline, stabilizes, or improves patient outcome
safety and tolerability [1]: acceptable safety and tolerability
Significance of neuroprotection vs 1 uM LPS ([2]; 0.1 nM): +++ (+++ indicates p<0.001)
Significance of neuroprotection vs 1 uM LPS ([2]; 1 nM): +++ (+++ indicates p<0.001)
Significance of neuroprotection vs 1 uM LPS ([2]; 10 nM): +++ (+++ indicates p<0.001)
Significance of neuroprotection vs 1 uM LPS ([2]; 100 nM): +++ (+++ indicates p<0.001)
Significance of neuroprotection vs 1 uM LPS ([2]; 1 μM): +++ (+++ indicates p<0.001)
protection of primary neurons from LPS-stimulated inflammatory toxicity ([2]; at at least one dose tested): protected primary neurons from LPS-stimulated inflammatory toxicity
neurite length / extension of neurites (in words) (Rat hippocampal neurons [3]): increase both measures at all doses tested
Significant increase in: Neurite length (Rat hippocampal neurons [3]; 1 nM): ++++ (++++ = p < 0.0001)
Significant increase in: Neurite length (Rat hippocampal neurons [3]; 10 nM): ++++ (++++ = p < 0.0001)
Significant increase in: Neurite length (Rat hippocampal neurons [3]; 100 nM): + (+ = p < 0.05)
synapse counts (in words) (Rat hippocampal neurons [4]): increase both measures at all doses tested
Significant increase in: Synapses (Rat hippocampal neurons [4]; 1 nM): ++++ (++++ = p < 0.0001)
Significant increase in: Synapses (Rat hippocampal neurons [4]; 10 nM): ++++ (++++ = p < 0.0001)
Significant increase in: Synapses (Rat hippocampal neurons [4]; 100 nM): ++++ (++++ = p < 0.0001)
Recovery (%) ([5]; 0.5 mg/kg p.o. 14 days): 17%
Spontaneous alternation (%) Mean ([5]; 0.5 mg/kg p.o. 14 days): 49%
Spontaneous alternation (%) Mean ([5]; 0.5 mg/kg p.o. 14 days, listed as Cmpd la): 48.6%
Recovery (%) ([5]; 2 mg/kg p.o. 14 days): 56%
Spontaneous alternation (%) Mean ([5]; 2 mg/kg p.o. 14 days): 59%
Spontaneous alternation (%) Mean ([5]; 2 mg/kg p.o. 14 days, listed as Cmpd la): 58.6%
Recovery (%) ([5]; 8 mg/kg p.o. 14 days): 47%
Spontaneous alternation (%) Mean ([5]; 8 mg/kg p.o. 14 days): 56%
Spontaneous alternation (%) Mean ([5]; 8 mg/kg p.o. 14 days, listed as Cmpd la): 56.4%
Recovery (%) ([5]; 16 mg/kg p.o. 14 days): 28%
Spontaneous alternation (%) Mean ([5]; 16 mg/kg p.o. 14 days): 51%
Spontaneous alternation (%) Mean ([5]; 16 mg/kg p.o. 14 days, listed as Cmpd la): 51.4%
Recovery (%) ([5]; 32 mg/kg p.o. 14 days): 44%
Spontaneous alternation (%) Mean ([5]; 32 mg/kg p.o. 14 days): 56%
Spontaneous alternation (%) Mean ([5]; 32 mg/kg p.o. 14 days, listed as Cmpd la): 55.7%
significance of reversal of LPS-induced cognitive deficit (in words) ([5]; T-maze): significant reversal of LPS-induced cognitive deficits at 2 mg/kg
Significant reduction in IL-1β ([6]; 0.1 nM): ++ (indicates a p value<0.01 in Tukey post test)
Significant reduction in IL-6 ([6]; 0.1 nM): NS
Significant reduction in TNF-α ([6]; 0.1 nM): ++ (indicates a p value<0.01 in Tukey post test)
Significant reduction in IL-1β ([6]; 10 nM): ++ (indicates a p value<0.01 in Tukey post test)
Significant reduction in IL-6 ([6]; 10 nM): ++ (indicates a p value<0.01 in Tukey post test)
Significant reduction in TNF-α ([6]; 10 nM): ++ (indicates a p value<0.01 in Tukey post test)
Significant reduction in IL-1β ([6]; 1000 nM): ++ (indicates a p value<0.01 in Tukey post test)
Significant reduction in IL-6 ([6]; 1000 nM): + (indicates a p value<0.05 in Tukey post test)
Significant reduction in TNF-α ([6]; 1000 nM): ++ (indicates a p value<0.01 in Tukey post test)
expression of IL-1β (in words) ([6]; at at least one tested dose): significantly reduced the expression of IL-1β and TNF-α
expression of IL-6 (in words) ([6]; at at least one tested dose): significantly reduced the expression of IL-6
expression of TNF-α (in words) ([6]; at at least one tested dose): significantly reduced the expression of IL-1β and TNF-α
TGF-Beta, improvement versus disease control ([7]; 0.2 mg/kg po QD): +++ (+++ => 51-100% improvement v disease control)
weight loss compared to the other treatment groups ([7]; 0.8 mg/kg): slightly greater weight loss
Right Lung Weight, improvement versus disease control ([7]; 0.8 mg/kg po QD, day 21): + (+ => 5-25% improvement v disease control)
Collagen, improvement versus disease control ([7]; 0.8 mg/kg po QD): + (+ => 5-25% improvement v disease control)
TGF-Beta, improvement versus disease control ([7]; 0.8 mg/kg po QD): +++ (+++ => 51-100% improvement v disease control)
collagen in right lung homogenate versus pirfenidone (in words) ([7]; 2 mg/kg): about the same levels of collagen
Right Lung Weight, improvement versus disease control ([7]; 2 mg/kg po QD, day 21): + (+ => 5-25% improvement v disease control)
Collagen, improvement versus disease control ([7]; 2 mg/kg po QD): ++ (++ => 26-50% improvement v disease control)
Hydroxyproline, improvement versus disease control ([7]; 2 mg/kg po QD): ++ (++ => 26-50% improvement v disease control)
TGF-Beta, improvement versus disease control ([7]; 2 mg/kg po QD): +++ (+++ => 51-100% improvement v disease control)
collagen concentration in right lung homogenates (in words) ([7]; 8 mg/kg): reduced compared to the pirfenidone positive control
hydroxyproline concentration in right lung homogenates (in words) ([7]; 8 mg/kg and 2 mg/kg): lower concentrations of hydroxyproline
Right Lung Weight, improvement versus disease control ([7]; 8 mg/kg po QD, day 21): ++ (++ => 26-50% improvement v disease control)
Hydroxyproline, improvement versus disease control ([7]; 8 mg/kg po QD): + (+ => 5-25% improvement v disease control)
TGF-Beta, improvement versus disease control ([7]; 8 mg/kg po QD): + (+ => 5-25% improvement v disease control)
protection against bleomycin-induced increases in TGF-β (in words) ([7]; all doses, day 21): significantly protected against bleomycin-induced increases in TGF-β
protection against body weight loss (in words) ([7]; all treatment groups): did not protect against body weight loss
activity in treating pulmonary fibrosis in the model ([7]; mouse, in vivo): active in treating pulmonary fibrosis
Neutrophils in BALF, reduction vs disease control ([8]; 0.0075 mg/kg IV): ++ (++ = >25% reduction in cell count vs disease control)
Total Leukocytes in BALF, reduction vs disease control ([8]; 0.0075 mg/kg IV): ++ (++ = >25% reduction in cell count vs disease control)
Neutrophils in BALF, reduction vs disease control ([8]; 0.075 mg/kg IV): + (+ = >5% reduction in cell count vs disease control)
Total Leukocytes in BALF, reduction vs disease control ([8]; 0.075 mg/kg IV): + (+ = >5% reduction in cell count vs disease control)
neutrophil counts compared to LPS-only controls (in words) ([8]; rat, in vivo): reduced both total leukocyte counts and neutrophil counts
total leukocyte counts compared to LPS-only controls (in words) ([8]; rat, in vivo): reduced both total leukocyte counts and neutrophil counts
cytokines with significant changes in expression in BALF supernatant (list) [9]: G-CSF, CXCL2, CXCL10, IFN-γ, and IL-1β
Cognitive Improvement ([10]; 0.5 mg/kg PO): + (+ indicates post-test p-value between 0.06 and 0.05)
Cognitive Improvement ([10]; 2 mg/kg PO): − (− indicates post-test p-value above 0.06)
Cognitive Improvement ([10]; 8 mg/kg PO): − (− indicates post-test p-value above 0.06)
